Source: US20250257034A1, “INDOLE DERIVATIVES AS SEROTONERGIC AGENTS USEFUL FOR THE TREATMENT OF DISORDERS RELATED THERETO” (priority 2023, published 2025)
Where two headings read alike, the source gives them in different places.

What was measured:
[1] = Human liver microsomes stability; type: in vitro ADME; conditions: human liver microsomes
Protocol: (§1) The objective of this study was to estimate in vitro metabolic stability of exemplary compounds of Formula (I) or a pharmaceutically acceptable salt, solvate, and/or prodrug thereof in pooled human, male rat, and male mouse liver microsomes. The concentrations of compounds in reaction systems were evaluated by LC-MS/MS for estimating the stability in pooled human, male rat, and male mouse liver microsomes. The in vitro intrinsic clearances of test compounds were determined as well.
(§2) A master solution in the “Incubation Plate” containing phosphate buffer, ultra-pure H2O, MgCl2 solution and liver microsomes was made according to Table 33. The mixture was pre-warmed at 37° C. water bath for 5 minutes.
(§3) 40 μL of 10 mM nicotinamide adenine dinucleotide phosphate (NADPH) solution was added to each well. The final concentration of NADPH was 1 mM. The negative control samples were prepared by replacing NADPH with 40 μL of ultra-pure H2O. Samples were prepared in duplicate. Negative controls were prepared in singlet.
(§4) The reaction was started with the addition of 4 μL of 200 μM exemplary test compounds of the disclosure or control compounds to each master solution to get the final concentration of 2 μM. This study was performed in duplicate.
(§5) Aliquots of 50 μL were taken from the reaction solution at 0, 15, 30, 45, and 60 minutes. The reaction solutions were stopped by the addition of 4 volumes of cold methanol with IS (100 nM alprazolam, 200 nM imipramine, 200 nM labet alol and 2 μM ketoprofen). Samples were centrifuged at 3,220 g for 40 minutes. Aliquot of 90 μL of the supernatant was mixed with 90 μL of ultra-pure H2O and then was used for LC-MS/MS analysis.
(§6) LC/MS analysis was performed for all samples from this study using a Shimadzu liquid chromatograph separation system equipped with degasser DGU-20A5R; solvent delivery unit LC-30AD; system controller SIL-30AC; column oven CTO-30A; CTC Analytics HTC PAL System. Mass spectrometric analysis was performed using a Triple Quad™ 5500 instrument.
(§7) All calculations were carried out using Microsoft Excel. Peak area ratios of test compound to internal standard (listed in the below table) were determined from extracted ion chromatograms.
(§8) All calculations were carried out using Microsoft Excel. Peak areas were determined from extracted ion chromatograms. The slope value, k, was determined by linear regression of the natural logarithm of the remaining percentage of the parent drug vs. incubation time curve.
(§9) The in vitro half-life (in vitro t1/2) was determined from the slope value:
(§10) Conversion of the in vitro t1/2(min) into the in vitro intrinsic clearance (in vitro CLint, in μL/min/mg proteins) was done using the following equation (mean of duplicate determinations): […]
(§11) A master solution in the “Incubation Plate” containing phosphate buffer, ultra-pure H2O, MgCl2 solution and liver microsomes was made according to Table 63. The mixture was pre-warmed at 37° C. water bath for 5 minutes.
(§12) 40 μL of 10 mM NADPH solution was added to each well. The final concentration of NADPH was 1 mM. The negative control samples were prepared by replacing NADPH with 40 μL of ultra-pure H2O. Samples were prepared in duplicate. Negative controls were prepared in singlet.
(§13) Conversion of the in vitro t1/2(min) into the in vitro intrinsic clearance (in vitro C Lt, in μL/min/mg proteins) was done using the following equation (mean of duplicate determinations): […]

[2] = Rat liver microsomes stability; type: in vitro ADME; conditions: rat liver microsomes
Protocol: as §1, §2, §3, §4, §5, §6, §7, §8, §9, §10, §11, §12, §13

[3] = Mouse liver microsomes stability; type: in vitro ADME; conditions: mouse liver microsomes
Protocol: as §1, §2, §3, §4, §5, §6, §7, §8, §9, §10, §11, §12, §13

[4] = Pharmacokinetic studies in rat (i.v.); type: in vivo; conditions: male, Sprague-Dawley, rat, plasma, dose 1.37 mg/kg (I-71, I-128), 1.33 mg/kg ((S) I-67); for concentration at 0.25 h / concentration at 1 h / concentration at 4 h: intravenous, rat i.v.; for AUC(0-t) / half-life: iv, rat plasma, i.v.; for half-life: estimated from 2 points only
Protocol: Animals: Male Sprague-Dawley rats (˜225-350 g) from Charles River Labs were acclimatized for a minimum of 5 days prior to start of study procedures. Body weights were recorded on the day of dosing.
Any abnormalities were documented including presence/absence of wet dog shakes/back muscle contractions (WDS/BMC).
Dosing: Formulations were administered intravenously (i.v.) via the tail vein using a 25 G needle connected to a 1 cc syringe.
The Compounds of Formula (I) were freshly prepared at the appropriate concentrations in 5% Tween-80 in saline.
Blood collection time (h): 0.25, 1 and 4.
Volume/time-point: ˜0.25 mL […] (saphenous vein).
Instrumentation: AB Sciex QTRAP 4000 or 6500 MS/MS system equipped with an LC system with a binary pump, a solvent degasser, a thermostatted column compartment and a multiplate autosampler.
Analysis software: Phoenix® WinNonlin® 8.3 (Pharsight, Certara, Mountainview, CA).
Analysis methods: non-compartmental analysis, linear up/log down trapezoidal rule.
PK parameters: t1/2 and AUC0-tlast were be estimated.
Volume/time-point: ˜0.25 mL (saphenous vein).
PK parameters: t1/2 and AUC0-tlast were estimated.

[5] = male, pooled liver microsomes, 2 μM compound, 0.5 mg/mL
[6] = male, pooled liver microsomes, read-out: Scaled-up CLint
[7] = first individual rat (R01/R04), read-out: Plasma concentration
[8] = mean of 3 rats, read-out: Plasma concentration, Mean ± SD
[9] = second individual rat (R02/R05), read-out: Plasma concentration
[10] = third individual rat (R03/R06), read-out: Plasma concentration

For COc1ccc2[nH]cc(CCN3CC[C@H](OC(F)F)C3)c2c1 [(S) I-67, (S)-3-(2-(3-(Difluoromethoxy)pyrrolidin-1-yl)ethyl)-5-methoxy-1H-indole], the “Predicted hepatic CL” value [1] was 13.30 mL/min/kg, the half-life at 2 μM ([1]; 2 μM compound, 0.5 mg/mL) was 46.8 min and the microsomal CLint at 2 μM ([1]; 2 μM compound, 0.5 mg/mL, read-out: CLint (μL/min/mg protein)) was 29.6 µL/min/mg. The “Remaining Percentage (%)” value ([1]; With Cofactors, 0 min) was 100.00%, the “Remaining Percentage (%)” value ([1]; With Cofactors, 30 min) was 66.20% and the “Remaining Percentage (%)” value ([1]; With Cofactors, 60 min) was 41.10%. For the same compound, the “Remaining Percentage (%)” value ([1]; Without Cofactors, 0 min) was 100.00%, the “Remaining Percentage (%)” value ([1]; Without Cofactors, 30 min) was 98.68% and the “Remaining Percentage (%)” value ([1]; Without Cofactors, 60 min) was 100.00%. It also gave a CLint scaled at 2 μM ([1]; read-out: Scaled-up CLint) of 37.2 mL/min/kg, a half-life at 2 μM [2, 5] of under 4.51 min and a CLint scaled at 2 μM [2, 6] of over 550 mL/min/kg. For the same compound, the microsomal CLint at 2 μM ([2]; male, rat, pooled liver microsomes, 2 μM compound, 0.5 mg/mL, read-out: CLint (μL/min/mg protein)) was over 307 µL/min/mg, the “Predicted hepatic CL” value [2] was over 50.17 mL/min/kg and the “Remaining Percentage (%)” value ([2]; With Cofactors, 0 min) was 100.00%. The “Remaining Percentage (%)” value ([2]; With Cofactors, 30 min) was 0.00%, the “Remaining Percentage (%)” value ([2]; With Cofactors, 60 min) was 0.00% and the “Remaining Percentage (%)” value ([2]; Without Cofactors, 0 min) was 100.00%. For the same compound, the “Remaining Percentage (%)” value ([2]; Without Cofactors, 30 min) was 99.06%, the “Remaining Percentage (%)” value ([2]; Without Cofactors, 60 min) was 96.86% and the microsomal CLint at 2 μM ([3]; male, mouse, pooled liver microsomes, 2 μM compound, 0.5 mg/mL, read-out: CLint (μL/min/mg protein)) was 69.3 µL/min/mg. The half-life at 2 μM [3, 5] was 20 min, the CLint scaled at 2 μM [3, 6] was 303 mL/min/kg and the “Predicted hepatic CL” value [3] was 69.41 mL/min/kg. For the same compound, the “Remaining Percentage (%)” value ([3]; With Cofactors, 0 min) was 100.00%, the “Remaining Percentage (%)” value ([3]; With Cofactors, 30 min) was 34.21% and the “Remaining Percentage (%)” value ([3]; With Cofactors, 60 min) was 12.49%. For the same compound, the “Remaining Percentage (%)” value ([3]; Without Cofactors, 0 min) was 100.00%, the “Remaining Percentage (%)” value ([3]; Without Cofactors, 30 min) was 103.46% and the “Remaining Percentage (%)” value ([3]; Without Cofactors, 60 min) was 100.35%. The concentration at 0.25 h [4, 7] was 413 ng/mL, the concentration at 0.25 h [4, 8] was 436 ± 32.4 ng/mL and the concentration at 0.25 h [4, 9] was 473 ng/mL. For the same compound, the concentration at 0.25 h [4, 10] was 422 ng/mL, the concentration at 1 h [4, 7] was 172 ng/mL and the concentration at 1 h [4, 8] was 162 ± 9.07 ng/mL. The concentration at 1 h [4, 9] was 155 ng/mL, the concentration at 1 h [4, 10] was 158 ng/mL and the concentration at 4 h [4, 7] was 5.35 ng/mL. The concentration at 4 h [4, 8] was 6.96 ± 1.54 ng/mL, the concentration at 4 h [4, 9] was 8.41 ng/mL and the concentration at 4 h [4, 10] was 7.12 ng/mL. The AUC(0-t) ([4]; first individual rat (R01/R04), read-out: AUC0-tlast) was 470 ng·h/mL, the half-life ([4]; first individual rat (R01/R04), read-out: Apparent t1/2 (converted)) was 35.9 min and the AUC(0-t) ([4]; mean of 3 rats, read-out: AUC0-tlast, Mean ± SD) was 484 ± 21.1 ng·h/mL. It also gave a half-life ([4]; mean of 3 rats, read-out: Apparent t1/2, Mean ± SD (converted)) of 38.2 ± 2.02 min, an AUC(0-t) ([4]; second individual rat (R02/R05), read-out: AUC0-tlast) of 508 ng·h/mL and a half-life ([4]; second individual rat (R02/R05), read-out: Apparent t1/2 (converted)) of 39.8 min. It also gave an AUC(0-t) ([4]; third individual rat (R03/R06), read-out: AUC0-tlast) of 472 ng·h/mL and a half-life ([4]; third individual rat (R03/R06), read-out: Apparent t1/2 (converted)) of 38.8 min.
